Laboratory results reported in patent US10251394B2, “Molecules having pesticidal utility, and intermediates, compositions, and processes, related thereto” (Dow AgroSciences LLC, priority 2016, dated 2019).

Legend:
Assay type in all cases: in vivo
[1] = tested on: Beet Armyworm (Spodoptera exigua); experiment: Bioassay on Beet Armyworm (BAW), 128-well diet tray assay; conditions: Beet Armyworm, Table ABC, read-out: BAW rating
Outline: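 Second-instar larvae (one to five per well) placed on artificial diet surface-treated with 50 μg/cm^2 test molecule in 90:10 acetone-water, dried, eight wells per molecule. Held at 25° C, 14:10 light-dark, five to seven days; percent mortality recorded per well and averaged across the eight wells.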

[2] = tested on: Cabbage Looper (Trichoplusia ni); experiment: Bioassay on Cabbage Looper (CL), 128-well diet tray assay; conditions: Cabbage Looper, Table ABC, read-out: CL rating
Outline: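 Second-instar larvae, one to five per well, placed on artificial diet surface-treated with 50 μg/cm^2 compound in acetone-water, eight wells per compound. Held 5-7 days at 25° C, 14:10 light-dark; percent mortality per well averaged across wells.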

[3] = tested on: Yellow Fever Mosquito (Aedes aegypti); experiment: Bioassay on Yellow Fever Mosquito (YFM) larvae, 96-well plate; conditions: Table ABC
Procedure: Example C: Bioassays on Yellow Fever Mosquito (Aedes Aegypti, AEDSAE) (“YFM”)
Certain molecules disclosed in this document were tested against YFM using procedures described in the following paragraph. In the reporting of the results, the “GPA & YFM Rating Table” was used (See Table Section).
Master plates containing 400 μg of a molecule dissolved in 100 μL of dimethyl sulfoxide (DMSO) (equivalent to a 4000 ppm solution) are used. A master plate of assembled molecules contains 15 μL per well. To this plate, 135 μL of a 90:10 water:acetone mixture is added to each well. A robot (Biomek® NXP Laboratory Automation Workstation) is programmed to dispense 15 μL aspirations from the master plate into an empty 96-well shallow plate (“daughter” plate). There are 6 reps (“daughter” plates) created per master. The created daughter plates are then immediately infested with YFM larvae.
The day before plates are to be treated, mosquito eggs are placed in Millipore water containing liver powder to begin hatching (4 g. into 400 mL). After the daughter plates are created using the robot, they are infested with 220 μL of the liver powder/larval mosquito mixture (about 1 day-old larvae). After plates are infested with mosquito larvae, a non-evaporative lid is used to cover the plate to reduce drying. Plates are held at room temperature for 3 days prior to grading. After 3 days, each well is observed and scored based on mortality. The results are indicated in the table entitled “Table ABC: Biological Results” (See Table Section).

CN(CC(F)(F)F)C(=O)C1(NC(=O)c2ccc(/C(F)=C/C(c3cc(Cl)cc(Cl)c3)C(F)(F)F)cc2C(F)(F)F)CC1 (stereo not drawn) [F115, (Z)-4-(3-(3,5-Dichlorophenyl)-1,4,4,4-tetrafluorobut-1-en-1-yl)-N-(1-(methyl(2,2,2-trifluoroethyl)carbamoyl)cyclopropyl)-2-(trifluoromethyl)benzamide]
pest or weed control at 50 µg/cm2 [1]: 50 to 100% | pest or weed control at 50 µg/cm2 [2]: 50 to 100% | YFM rating [3]: B (More than 0-Less than 80)

O=C(CNC(=O)c1ccc(/C(F)=C/C(c2cc(Cl)c(F)c(Cl)c2)C(F)(F)F)cc1C(F)(F)F)NCC(F)(F)F (stereo not drawn) [F38, (Z)-4-(3-(3,5-Dichloro-4-fluorophenyl)-1,4,4,4-tetrafluorobut-1-en-1-yl)-N-(2-oxo-2-((2,2,2-trifluoroethyl)amino)ethyl)-2-(trifluoromethyl)benzamide]
pest or weed control at 50 µg/cm2 [1]: 50 to 100% | pest or weed control at 50 µg/cm2 [2]: 50 to 100% | YFM rating [3]: A (80-100)

CCc1ccc(C(/C=C(\F)c2ccc(C(=O)N[C@H](C)C(=O)NCC(F)(F)F)c(C(F)(F)F)c2)C(F)(F)F)cc1Cl (stereo partly drawn) [F164, 4-((Z)-3-(3-Chloro-4-ethylphenyl)-1,4,4,4-tetrafluorobut-1-en-1-yl)-N—((R)-1-oxo-1-((2,2,2-trifluoroethyl)amino)propan-2-yl)-2-(trifluoromethyl)benzamide]
pest or weed control at 50 µg/cm2 [1]: 50 to 100% | pest or weed control at 50 µg/cm2 [2]: 50 to 100% | YFM rating [3]: B (More than 0-Less than 80)

O=C(CNC(=O)c1ccc(/C(F)=C/C(c2cc(F)cc(Cl)c2)C(F)(F)F)cc1C(F)(F)F)NCC(F)(F)F (stereo not drawn) [F157, (Z)-4-(3-(3-Chloro-5-fluorophenyl)-1,4,4,4-tetrafluorobut-1-en-1-yl)-N-(2-oxo-2-((2,2,2-trifluoroethyl)amino)ethyl)-2-(trifluoromethyl)benzamide]
pest or weed control at 50 µg/cm2 [1]: 50 to 100% | pest or weed control at 50 µg/cm2 [2]: 50 to 100% | YFM rating [3]: A (80-100)

CCc1ccc(C(/C=C(\F)c2ccc(C(=O)NCC(=O)NCC(F)(F)F)c(C(F)(F)F)c2)C(F)(F)F)cc1Cl (stereo not drawn) [F165, (Z)-4-(3-(3-Chloro-4-ethylphenyl)-1,4,4,4-tetrafluorobut-1-en-1-yl)-N-(2-oxo-2-((2,2,2-trifluoroethyl)amino)ethyl)-2-(trifluoromethyl)benzamide]
pest or weed control at 50 µg/cm2 [1]: 50 to 100% | pest or weed control at 50 µg/cm2 [2]: 50 to 100% | YFM rating [3]: B (More than 0-Less than 80)

C[C@@H](NC(=O)c1ccc(/C(F)=C/C(c2cc(Br)c(Cl)c(Br)c2)C(F)(F)F)cc1C(F)(F)F)C(=O)NCC(F)(F)F (stereo partly drawn) [F44, 4-((Z)-3-(3,5-Dibromo-4-chlorophenyl)-1,4,4,4-tetrafluorobut-1-en-1-yl)-N—((R)-1-oxo-1-((2,2,2-trifluoroethyl)amino)propan-2-yl)-2-(trifluoromethyl)benzamide]
pest or weed control at 50 µg/cm2 [1]: 50 to 100% | pest or weed control at 50 µg/cm2 [2]: 50 to 100% | YFM rating [3]: A (80-100)

C[C@@H](NC(=O)c1ccc(/C(F)=C/C(c2cc(Cl)c(Cl)c(Cl)c2)C(F)(F)F)cc1C(F)(F)F)C(=O)N(C)C (stereo partly drawn) [F172, N—((R)-1-(Dimethylamino)-1-oxopropan-2-yl)-4-((Z)-1,4,4,4-tetrafluoro-3-(3,4,5-trichlorophenyl)but-1-en-1-yl)-2-(trifluoromethyl)benzamide]
pest or weed control at 50 µg/cm2 [1]: 50 to 100% | pest or weed control at 50 µg/cm2 [2]: 50 to 100% | YFM rating [3]: B (More than 0-Less than 80)

C[C@@H](NC(=O)c1ccc(/C(F)=C/C(c2ccc(C(F)(F)F)c(Br)c2)C(F)(F)F)cc1C(F)(F)F)C(=O)NCC(F)(F)F (stereo partly drawn) [F208, 4-((Z)-3-(3-Bromo-4-(trifluoromethyl)phenyl)-1,4,4,4-tetrafluorobut-1-en-1-yl)-N—((R)-1-oxo-1-((2,2,2-trifluoroethyl)amino)propan-2-yl)-2-(trifluoromethyl)benzamide]
pest or weed control at 50 µg/cm2 [1]: 50 to 100% | pest or weed control at 50 µg/cm2 [2]: 50 to 100% | YFM rating [3]: A (80-100)

O=C(NC1(C(=O)NCC(F)(F)F)CC1)c1ccc(/C(F)=C/C(c2cc(Cl)c(F)c(Cl)c2)C(F)(F)F)cc1C(F)(F)F (stereo not drawn) [F37, (Z)-4-(3-(3,5-Dichloro-4-fluorophenyl)-1,4,4,4-tetrafluorobut-1-en-1-yl)-N-(1-((2,2,2-trifluoroethyl)carbamoyl)cyclopropyl)-2-(trifluoromethyl)benzamide]
pest or weed control at 50 µg/cm2 [1]: 50 to 100% | pest or weed control at 50 µg/cm2 [2]: 50 to 100% | YFM rating [3]: A (80-100)

O=C(NC1(C(=O)NCC(F)(F)F)CC1)c1ccc(/C(F)=C/C(c2ccc(Cl)c(Br)c2)C(F)(F)F)cc1C(F)(F)F (stereo not drawn) [F139, (Z)-4-(3-(3-Bromo-4-chlorophenyl)-1,4,4,4-tetrafluorobut-1-en-1-yl)-N-(1-((2,2,2-trifluoroethyl)carbamoyl)cyclopropyl)-2-(trifluoromethyl)benzamide]
pest or weed control at 50 µg/cm2 [1]: 50 to 100% | pest or weed control at 50 µg/cm2 [2]: 50 to 100% | YFM rating [3]: A (80-100)

C[C@@H](NC(=O)c1ccc(/C(F)=C/C(c2cc(Br)c(Cl)c(Br)c2)C(F)(F)F)cc1C(F)(F)F)C(=O)N(C)CC(F)(F)F (stereo partly drawn) [F78, 4-((Z)-3-(3,5-Dibromo-4-chlorophenyl)-1,4,4,4-tetrafluorobut-1-en-1-yl)-N—((R)-1-(methyl(2,2,2-trifluoroethyl)amino)-1-oxopropan-2-yl)-2-(trifluoromethyl)benzamide]
pest or weed control at 50 µg/cm2 [1]: 50 to 100% | pest or weed control at 50 µg/cm2 [2]: 50 to 100% | YFM rating [3]: A (80-100)

CN(CC(F)(F)F)C(=O)C1(NC(=O)c2ccc(/C(F)=C/C(c3cc(Cl)c(F)c(Cl)c3)C(F)(F)F)cc2C(F)(F)F)CC1 (stereo not drawn) [F114, (Z)-4-(3-(3,5-Dichloro-4-fluorophenyl)-1,4,4,4-tetrafluorobut-1-en-1-yl)-N-(1-(methyl(2,2,2-trifluoroethyl)carbamoyl)cyclopropyl)-2-(trifluoromethyl)benzamide]
pest or weed control at 50 µg/cm2 [1]: 50 to 100% | pest or weed control at 50 µg/cm2 [2]: 50 to 100% | YFM rating [3]: A (80-100)

C[C@@H](NC(=O)c1ccc(/C(F)=C/C(c2ccc(F)c(C(F)(F)F)c2)C(F)(F)F)cc1C(F)(F)F)C(=O)NCC(F)(F)F (stereo partly drawn) [F141, N—((R)-1-Oxo-1-((2,2,2-trifluoroethyl)amino)propan-2-yl)-4-((Z)-1,4,4,4-tetrafluoro-3-(4-fluoro-3-(trifluoromethyl)phenyl)but-1-en-1-yl)-2-(trifluoromethyl)benzamide]
pest or weed control at 50 µg/cm2 [1]: 50 to 100% | pest or weed control at 50 µg/cm2 [2]: 50 to 100% | YFM rating [3]: A (80-100)

CN(CC(F)(F)F)C(=O)C1(NC(=O)c2ccc(/C(F)=C/C(c3ccc(Cl)c(Cl)c3)C(F)(F)F)cc2C(F)(F)F)CC1 (stereo not drawn) [F120, (Z)-4-(3-(3,4-Dichlorophenyl)-1,4,4,4-tetrafluorobut-1-en-1-yl)-N-(1-(methyl(2,2,2-trifluoroethyl)carbamoyl)cyclopropyl)-2-(trifluoromethyl)benzamide]
pest or weed control at 50 µg/cm2 [1]: 50 to 100% | pest or weed control at 50 µg/cm2 [2]: 50 to 100% | YFM rating [3]: B (More than 0-Less than 80)

O=C(NC1(C(=O)NCC(F)(F)F)CC1)c1ccc(/C(F)=C/C(c2cc(Cl)cc(Br)c2)C(F)(F)F)cc1C(F)(F)F (stereo not drawn) [F116, (Z)-4-(3-(3-Bromo-5-chlorophenyl)-1,4,4,4-tetrafluorobut-1-en-1-yl)-N-(1-((2,2,2-trifluoroethyl)carbamoyl)cyclopropyl)-2-(trifluoromethyl)benzamide]
pest or weed control at 50 µg/cm2 [1]: 50 to 100% | pest or weed control at 50 µg/cm2 [2]: 50 to 100% | YFM rating [3]: A (80-100)

C[C@@H](NC(=O)c1ccc(/C(F)=C/C(c2cc(Cl)c(F)c(Cl)c2)C(F)(F)F)cc1C(F)(F)F)C(=O)N(C)CC(F)(F)F (stereo partly drawn) [F81, 4-((Z)-3-(3,5-Dichloro-4-fluorophenyl)-1,4,4,4-tetrafluorobut-1-en-1-yl)-N—((R)-1-(methyl(2,2,2-trifluoroethyl)amino)-1-oxopropan-2-yl)-2-(trifluoromethyl)benzamide]
pest or weed control at 50 µg/cm2 [1]: 50 to 100% | pest or weed control at 50 µg/cm2 [2]: 50 to 100% | YFM rating [3]: A (80-100)

C=Cc1c(Cl)cc(C(/C=C(\F)c2ccc(C(=O)N[C@H](C)C(=O)N(C)CC(F)(F)F)c(C(F)(F)F)c2)C(F)(F)F)cc1Cl (stereo partly drawn) [F86, 4-((Z)-3-(3,5-Dichloro-4-vinylphenyl)-1,4,4,4-tetrafluorobut-1-en-1-yl)-N—((R)-1-(methyl(2,2,2-trifluoroethyl)amino)-1-oxopropan-2-yl)-2-(trifluoromethyl)benzamide]
pest or weed control at 50 µg/cm2 [1]: 50 to 100% | pest or weed control at 50 µg/cm2 [2]: 50 to 100% | YFM rating [3]: A (80-100)

CN(CC(F)(F)F)C(=O)CNC(=O)c1ccc(/C(F)=C/C(c2cc(Cl)cc(Br)c2)C(F)(F)F)cc1C(F)(F)F (stereo not drawn) [F137, (Z)-4-(3-(3-Bromo-5-chlorophenyl)-1,4,4,4-tetrafluorobut-1-en-1-yl)-N-(2-(methyl(2,2,2-trifluoroethyl)amino)-2-oxoethyl)-2-(trifluoromethyl)benzamide]
pest or weed control at 50 µg/cm2 [1]: 50 to 100% | pest or weed control at 50 µg/cm2 [2]: 50 to 100% | YFM rating [3]: B (More than 0-Less than 80)
